Patent US4232121A, “Process for selecting methine dyes which inhibit cell growth” (Eastman Kodak Company, priority 1978, dated 1980)
Where two headings read alike, the source gives them in different places. Each block holds one molecule with its values, some of them ahead of it.

What was measured:
[1] = system: Bacillus pumilus strain K-1; assay: Inhibition of bacterial growth, filter paper on inoculated agar plates; format: cell-based; details: for zone of inhibition at 1000 µM / zone of inhibition at 100 µM: Bacillus pumilus, read-out: Diameter of Inhibition
Experimental: Nutrient broth was prepared by mixing 8 grams of BACTO dehydrated nutrient broth per liter of distilled water. […] Samples of the nutrient broth were then inoculated with Bacillus pumilus strain K-1 culture. […]
Nutrient agar was prepared by mixing 23 grams of BACTO nutrient agar per liter of distilled water. The nutrient agar was sterilized in the same way as the nutrient broth. After it has cooled to about 45° C. 250 ml of the nutrient agar solution was aeseptically inoculated with 5 ml of the Bacillus pumilus, K-1 culture prepared in (A), above. Plates of the inoculated nutrient agar were then poured and allowed to harden.
[…] To minimize possible photocatalyzed reactions of the dyes, all preparations were performed under yellow lights and all incubations were performed in the dark.
Schleider and Schuell #740-E filter paper (12.7 mm diameter) was dipped in the dye solution, touched to the side of the beaker to removed excess dye, and placed in the center of the inoculated agar plates (prepared in (B) above). […] The plates were then examined to determine if bacterial growth had been affected by the dye-containing filter paper. […]
Control plates were prepared in which the filter paper contained methanol or a 0.2 molar aqueous solution of phenol. […]

[2] = not told
Bacillus pumilus (K-1) = system: Bacillus pumilus (K-1)
Experimental: This can be accomplished by contacting a given concentration of the dye with the cells, removing the cells from the dye solution and then comparing the optical density (at λmax) of the remaining dye solution with a control containing the original concentration of the dye. The percentage decrease in optical density indicates the percentage of dye which has been bound to the cells.
The culture was collected by centrifugation at 5,000×g. for 10 minutes, and the resultant pellet was washed several times in cold 0.05 M potassium phosphate buffer, pH 7.0. The pellet was resuspended in the buffer solution to a final optical density of 1.0 at 620 nm as measured with a Bausch and Lomb Spectronic 20.
One-tenth ml of dye solution (1 mg/ml in methanol) was added to a tube containing 5 ml of cell suspension described above and a control tube containing 0.05 M potassium phosphate buffer, pH 7.0. All tubes were well agitated using a Vari-Whirl Mixer (Will Scientific Co.) and then centrifuged at 10,000×g. for 10 minutes.
The percent binding of dye to the cells for each dye, was determined by comparison of the density at λmax of the control supernatant sample with the density at λmax of the supernatant of the cell sample.

[3] = K1, 72 h, Tables V and VI, 10^-3 molar, three days
[4] = Tables V and VI, 10^-3 molar, three days
[5] = K1, Table II, 10^-4 molar, 26° C., forty-eight hours

SMILES: CCN1C(=CC=Cc2sc3cc(OC)ccc3[n+]2CC)Sc2cc(OC)ccc21 [17,6,6'-dimethoxy]
zone of inhibition at 1000 µM [1, 3]: 15 mm

SMILES: CCN1C(=CC=Cc2sc3cc(O)ccc3[n+]2CC)Sc2cc(O)ccc21 [17,6,6'-dihydroxy]
zone of inhibition at 1000 µM [1, 3]: 15.5 mm

ER [2]: -1.27
SMILES: CCN1C(=CC=Cc2oc3ccc(S(=O)(=O)[O-])cc3[n+]2CC)Oc2ccc(S(=O)(=O)O)cc21 [7,5,5'-disulfo]
Diameter of Inhibition [1, 4]: None

SMILES: CCN1C(=CC=Cc2sc3c(OC)cccc3[n+]2CC)Sc2c(OC)cccc21 [17,7,7'-dimethoxy]
zone of inhibition at 1000 µM [1, 3]: 14.5 mm

SMILES: CCN1C(=CC=Cc2oc3cccc(OC(C)=O)c3[n+]2CC)Oc2cccc(OC(C)=O)c21 [7,4,4'-diacetoxy]
zone of inhibition at 1000 µM [1, 3]: 15 mm

ER [2]: -.87
SMILES: CCN1C(=CC=Cc2sc3cc(Cl)ccc3[n+]2CC)Sc2cc(Cl)ccc21 [17,6,6'-dichloro]
zone of inhibition at 1000 µM [1, 3]: 14 mm

SMILES: CCN1C(=CC=Cc2sc3cc(OC(C)=O)ccc3[n+]2CC)Sc2cc(OC(C)=O)ccc21 [17,6,6'-diacetoxy]
zone of inhibition at 1000 µM [1, 3]: 17 mm

% Bound (Bacillus pumilus (K-1)): 58.3%
ER [2]: -1.08
reduction potential (ER) [2]: -1.08 volts
SMILES: CCN1C(=Cc2sc3ccccc3[n+]2C)C=Cc2ccccc21 [Dye 14]
Activity Rating [1]: 11
zone of inhibition at 100 µM [1, 5]: 15 mm
zone of inhibition at 100 µM ([1]; K1, Table IX, 10^-4 M): 15 mm

SMILES: CCN1C(=CC=Cc2oc3ccc(O)cc3[n+]2CC)Oc2ccc(O)cc21 [7,5,5'-dihydroxy]
zone of inhibition at 1000 µM [1, 3]: 14 mm

SMILES: CN1C(=CC=Cc2oc3ccc(C(=O)O)cc3[n+]2C)Oc2ccc(C(=O)O)cc21 [7,5,5'-dicarboxy-N,N'-methyl]
Diameter of Inhibition [1, 4]: None

SMILES: CCN1C(=CC=Cc2oc3cccc(O)c3[n+]2CC)Oc2cccc(O)c21 [7,4,4'-dihydroxy]
zone of inhibition at 1000 µM [1, 3]: 13 mm

SMILES: CCN1C(=CC=Cc2oc3c(-c4ccccc4)cccc3[n+]2CC)Oc2c(-c3ccccc3)cccc21 [7,7,7'-diphenyl]
Diameter of Inhibition [1, 4]: None

SMILES: CCOc1ccc2c(c1)N(CC)C(=CC=Cc1oc3ccc(OCC)cc3[n+]1CC)O2 [7,5,5'-diethoxy]
zone of inhibition at 1000 µM [1, 3]: 14 mm

SMILES: CCN1C(=CC=Cc2sc3ccc(Br)cc3[n+]2CC)Sc2ccc(Br)cc21 [17,5,5'-dibromo]
zone of inhibition at 1000 µM [1, 3]: 13.5 mm

SMILES: CCN1C(=CC=Cc2sc3cc(S(=O)(=O)O)ccc3[n+]2CC)Sc2cc(S(=O)(=O)[O-])ccc21 [17,6,6'-disulfo]
Diameter of Inhibition [1, 4]: None

SMILES: CCN1C(=CC=Cc2sc3ccccc3[n+]2CC)Sc2ccccc21 [17, ClO4^-]
zone of inhibition at 1000 µM ([1]; K1, 72 h, Table IV, 10^-3 molar, three days, differing anions): 19 mm

% Bound (Bacillus pumilus (K-1)): 2.6%
reduction potential (ER) [2]: -1.26 volts
SMILES: CCN1C(=CC=Cc2oc3cc(S(=O)(=O)O)ccc3[n+]2CC)Oc2cc(S(=O)(=O)[O-])ccc21 [Dye 8]
Activity Rating [1]: 0
Diameter of Inhibition ([1]; Table IX, 10^-3 M): None

SMILES: CCN1C(=CC=Cc2oc3ccc(Cl)cc3[n+]2CC)Oc2ccc(Cl)cc21 [7,5,5'-dichloro]
zone of inhibition at 1000 µM [1, 3]: 26.5 mm

SMILES: CN1C(=CC=Cc2sc3cc(C#N)ccc3[n+]2C)Sc2cc(C#N)ccc21 [17,6,6'-dicyano-N,N'-dimethyl]
Diameter of Inhibition [1, 4]: None

SMILES: CN1C(=CC=Cc2oc3ccc([N+](=O)[O-])cc3[n+]2C)Oc2ccc([N+](=O)[O-])cc21 [7,5,5'-dinitro-N,N'-methyl]
Diameter of Inhibition [1, 4]: None

% Bound (Bacillus pumilus (K-1)): 95.1%
ER [2]: -1.18
reduction potential (ER) [2]: -1.18 volts
SMILES: CCN1C(=CC=Cc2oc3cc(Cl)ccc3[n+]2CC)Oc2cc(Cl)ccc21 [Dye 9]
Activity Rating [1]: 71
zone of inhibition at 1000 µM ([1]; K1, Table IX, 10^-3 M): 30.5 mm

SMILES: CCN1C(=CC=Cc2sc3c(N(C)C)cccc3[n+]2CC)Sc2c(N(C)C)cccc21 [17,7,7'-dimethylamino]
zone of inhibition at 1000 µM [1, 3]: 14 mm

SMILES: CCN1C(=CC=Cc2sc3cc(NC(C)=O)ccc3[n+]2CC)Sc2cc(NC(C)=O)ccc21 [17,6,6'-diacetamido]
Diameter of Inhibition [1, 4]: None

SMILES: CN1C(=CC=Cc2sc3cc(N)ccc3[n+]2C)Sc2cc(N)ccc21 [17,6,6'-diamino-N,N'-dimethyl]
Diameter of Inhibition [1, 4]: None

SMILES: CCN1C(=CC=Cc2oc3ccc(-c4ccccc4)cc3[n+]2CC)Oc2ccc(-c3ccccc3)cc21 [7,5,5'-diphenyl]
Diameter of Inhibition [1, 4]: None

SMILES: CCN1C(=CC=Cc2oc3cc(-c4ccccc4)ccc3[n+]2CC)Oc2cc(-c3ccccc3)ccc21 [7,6,6'-diphenyl]
Diameter of Inhibition [1, 4]: None

SMILES: CN1C(=CC=Cc2oc3cc([N+](=O)[O-])ccc3[n+]2C)Oc2cc([N+](=O)[O-])ccc21 [7,6,6'-dinitro-N,N'-methyl]
Diameter of Inhibition [1, 4]: None

SMILES: CCN1C(=CC=Cc2oc3ccc(NC(C)=O)cc3[n+]2CC)Oc2ccc(NC(C)=O)cc21 [7,5,5'-acetamido]
Diameter of Inhibition [1, 4]: None

SMILES: CCN1C(=CC=Cc2oc3ccc(OC)cc3[n+]2CC)Oc2ccc(OC)cc21 [7,5,5'-dimethoxy]
zone of inhibition at 1000 µM [1, 3]: 23.5 mm

SMILES: CCOc1ccc2c(c1)SC(=CC=Cc1sc3cc(OCC)ccc3[n+]1CC)N2CC [17,6,6'-diethoxy]
zone of inhibition at 1000 µM [1, 3]: 15 mm

SMILES: CCc1ccc2c(c1)N(CC)C(=CC=Cc1oc3ccc(CC)cc3[n+]1CC)O2 [7,5,5'-diethyl]
zone of inhibition at 1000 µM [1, 3]: 23 mm

SMILES: CCN1C(=CC=Cc2sc3ccc(OC(C)=O)cc3[n+]2CC)Sc2ccc(OC(C)=O)cc21 [17,5,5'-diacetoxy]
zone of inhibition at 1000 µM [1, 3]: 15 mm

SMILES: CCOc1ccc2c(c1)OC(=CC=Cc1oc3cc(OCC)ccc3[n+]1CC)N2CC [7,6,6'-diethoxy]
zone of inhibition at 1000 µM [1, 3]: 16 mm

SMILES: CCN1C(=CC=Cc2sc3ccc(OC)cc3[n+]2CC)Sc2ccc(OC)cc21 [17,5,5'-dimethoxy]
zone of inhibition at 1000 µM [1, 3]: 14.5 mm

% Bound (Bacillus pumilus (K-1)): 57.3%
reduction potential (ER) [2]: -0.60 volts
SMILES: CCN1C(=Cc2ccc3ccccc3[n+]2CC)Sc2cc([N+](=O)[O-])ccc21 [Dye 28]
Activity Rating [1]: 0
Diameter of Inhibition ([1]; Table II, 10^-4 molar, 26° C., forty-eight hours): None
Diameter of Inhibition ([1]; Table IX, 10^-4 M): None

SMILES: CCN1C(=CC=Cc2sc3cc(OC)c(OC)cc3[n+]2CC)Sc2cc(OC)c(OC)cc21 [17,5,5',6,6'-tetramethoxy]
Diameter of Inhibition [1, 4]: None

ER [2]: -.84
SMILES: CCN1C(=CC=Cc2sc3cc(I)ccc3[n+]2CC)Sc2cc(I)ccc21 [17, 6.6'-diiodo]
Diameter of Inhibition [1, 4]: None

ER [2]: -1.06
SMILES: CCN1C(=CC=Cc2sc3cc(F)ccc3[n+]2CC)Sc2cc(F)ccc21 [17,6,6'-difluoro]
zone of inhibition at 1000 µM [1, 3]: 18 mm

SMILES: CCN1C(=CC=Cc2oc3ccc(OC(C)=O)cc3[n+]2CC)Oc2ccc(OC(C)=O)cc21 [7,5,5'-diacetoxy]
zone of inhibition at 1000 µM [1, 3]: 30.5 mm
ER [2]: -1.18

SMILES: CCN1C(=CC=Cc2sc3cc(C)ccc3[n+]2CC)Sc2cc(C)ccc21 [17,6,6'-dimethyl]
zone of inhibition at 1000 µM [1, 3]: 15 mm

ER [2]: -.88
SMILES: CCN1C(=CC=Cc2sc3cc(Br)ccc3[n+]2CC)Sc2cc(Br)ccc21 [17,6,6'-dibromo]
Diameter of Inhibition [1, 4]: None

% Bound (Bacillus pumilus (K-1)): 98.9%
ER [2]: -1.16
reduction potential (ER) [2]: -1.16 volts
SMILES: CCN1C(=CC(C)=Cc2sc3ccccc3[n+]2CC)Sc2ccccc21 [Dye 11]
Activity Rating [1]: 25
zone of inhibition at 100 µM [1, 5]: 18 mm
zone of inhibition at 100 µM ([1]; K1, Table IX, 10^-4 M): 18 mm

SMILES: CCN1C(=CC=Cc2sc3cccc(OC)c3[n+]2CC)Sc2cccc(OC)c21 [17,4,4'-dimethoxy]
zone of inhibition at 1000 µM [1, 3]: 17.5 mm

ER [2]: -.99
SMILES: CN1C(=CC=Cc2oc3ccc(C#N)cc3[n+]2C)Oc2ccc(C#N)cc21 [7,5,5'-dicyano-N,N'-methyl]
Diameter of Inhibition [1, 4]: None

SMILES: CCN1C(=CC=Cc2oc3ccc(Br)cc3[n+]2CC)Oc2ccc(Br)cc21 [7,5,5'-dibromo]
zone of inhibition at 1000 µM [1, 3]: 22.5 mm

% Bound (Bacillus pumilus (K-1)): 3.3%
reduction potential (ER) [2]: -1.27 volts
SMILES: CCN1C(=CC=Cc2oc3ccc(S(=O)(=O)O)cc3[n+]2CC)Oc2ccc(S(=O)(=O)[O-])cc21 [Dye 6]
Activity Rating [1]: 0
Diameter of Inhibition ([1]; Table IX, 10^-3 M): None

% Bound (Bacillus pumilus (K-1)): 68.8%
ER [2]: -1.17
reduction potential (ER) [2]: -1.17 volts
SMILES: CCN1C(=CC=Cc2oc3ccc(OC(C)=O)cc3[n+]2CC)Oc2ccc(OC(C)=O)cc21 [Dye 10]
Activity Rating [1]: 80
zone of inhibition at 1000 µM ([1]; K1, Table IX, 10^-3 M): 28.5 mm

% Bound (Bacillus pumilus (K-1)): 98.4%
reduction potential (ER) [2]: -0.83 volts
SMILES: CCN1C(=CC=CC=Cc2sc3ccccc3[n+]2CC)Sc2ccccc21 [Dye 22]
zone of inhibition at 100 µM [1, 5]: 15 mm
zone of inhibition at 100 µM ([1]; K1, Table IX, 10^-4 M): 15 mm
Activity Rating ([1]; Table IX, 10^-4 M, relative to phenol concentration giving equal diameter, Dye 7 = 100): 11

SMILES: CCN1C(=CC=Cc2sc3ccc(C)cc3[n+]2CC)Sc2ccc(C)cc21 [17,5,5'-dimethyl]
zone of inhibition at 1000 µM [1, 3]: 14 mm
